From PubChem BioAssay AID2060501 (Molecular Pharmacology Branch, DTP, NCI, 2025)

Tested on: 282377-053-R-J1-PDC complex spheroids, viability
Experiment: Anticancer human tumor 282377-053-R-J1-PDC patient-derived colon adenocarcinoma cell line growth inhibition [GQUAD]
Details: for IC50: curve of first compound; for viability, T/C: stronger effect = lower value
Procedure, shortened: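 Multi-cell-type spheroids of tumor cells with HUVEC and mesenchymal stem cells, treated with drug combinations. Concentrations descend in half-log steps from near clinical Cmax, or from 10 microM where Cmax is unknown; viability read-out.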

[1] = second compound 0.0316 µM, first compound 0.0316 µM
[2] = second compound 0.0316 µM, first compound 0.1 µM
[3] = second compound 0.0316 µM, first compound 0.316 µM
[4] = second compound 0.0316 µM, first compound 1 µM
[5] = second compound 0.0316 µM, first compound 3.16 µM
[6] = second compound 0.0316 µM, first compound 10 µM
[7] = second compound 0.1 µM, first compound 0.0316 µM
[8] = second compound 0.1 µM, first compound 0.1 µM
[9] = second compound 0.1 µM, first compound 0.316 µM
[10] = second compound 0.1 µM, first compound 1 µM
[11] = second compound 0.1 µM, first compound 3.16 µM
[12] = second compound 0.1 µM, first compound 10 µM
[13] = second compound 0.316 µM, first compound 0.0316 µM
[14] = second compound 0.316 µM, first compound 0.1 µM
[15] = second compound 0.316 µM, first compound 0.316 µM
[16] = second compound 0.316 µM, first compound 1 µM
[17] = second compound 0.316 µM, first compound 3.16 µM
[18] = second compound 0.316 µM, first compound 10 µM
[19] = second compound 1 µM, first compound 0.0316 µM
[20] = second compound 1 µM, first compound 0.1 µM
[21] = second compound 1 µM, first compound 0.316 µM
[22] = second compound 1 µM, first compound 1 µM
[23] = second compound 1 µM, first compound 3.16 µM
[24] = second compound 1 µM, first compound 10 µM
[25] = second compound 3.16 µM, first compound 0.0316 µM
[26] = second compound 3.16 µM, first compound 0.1 µM
[27] = second compound 3.16 µM, first compound 0.316 µM
[28] = second compound 3.16 µM, first compound 1 µM
[29] = second compound 3.16 µM, first compound 3.16 µM
[30] = second compound 3.16 µM, first compound 10 µM
[31] = second compound 10 µM, first compound 0.0316 µM
[32] = second compound 10 µM, first compound 0.1 µM
[33] = second compound 10 µM, first compound 0.316 µM
[34] = second compound 10 µM, first compound 1 µM
[35] = second compound 10 µM, first compound 3.16 µM
[36] = second compound 10 µM, first compound 10 µM
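Further: spheroids exposed to compounds for 7 days before readout.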
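Wherever viability, T/C is given: percent of vehicle DMSO control viability with 100% = untreated-like growth.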

CCCS(=O)(=O)Nc1ccc(F)c(C(=O)c2c[nH]c3ncc(-c4ccc(Cl)cc4)cc23)c1F + Cc1[nH]c2ccc(F)cc2c1-c1nc2c3cccnc3c3ncccc3c2[nH]1
IC50 (second compound 0.0316 µM): 2.21 µM
IC50 (second compound 0.1 µM): 2.13 µM
IC50 (second compound 0.316 µM): 2.15 µM
IC50 (second compound 1 µM): 2.04 µM
IC50 (second compound 3.16 µM): 0.781 µM
IC50 (second compound 10 µM): < 0.0316 µM
viability, T/C [1]: 95.9%
viability, T/C [2]: 90.4%
viability, T/C [3]: 95.1%
viability, T/C [4]: 92.5%
viability, T/C [5]: 30.9%
viability, T/C [6]: 14.5%
viability, T/C [7]: 130%
viability, T/C [8]: 114%
viability, T/C [9]: 89%
viability, T/C [10]: 81.2%
viability, T/C [11]: 31.7%
viability, T/C [12]: 13.2%
viability, T/C [13]: 96.4%
viability, T/C [14]: 83.7%
viability, T/C [15]: 81.8%
viability, T/C [16]: 91.4%
viability, T/C [17]: 30.5%
viability, T/C [18]: 16.1%
viability, T/C [19]: 108%
viability, T/C [20]: 120%
viability, T/C [21]: 74.3%
viability, T/C [22]: 93.2%
viability, T/C [23]: 23.9%
viability, T/C [24]: 11.8%
viability, T/C [25]: 89.2%
viability, T/C [26]: 66.7%
viability, T/C [27]: 71.9%
viability, T/C [28]: 45.3%
viability, T/C [29]: 9.06%
viability, T/C [30]: 6.19%
viability, T/C [31]: 33.6%
viability, T/C [32]: 31.9%
viability, T/C [33]: 23.1%
viability, T/C [34]: 22.8%
viability, T/C [35]: 3.93%
viability, T/C [36]: 4.48%

COc1ncnc(C2CC2)c1-c1ncc2cnn(Cc3ccc(-c4nc(C(F)(F)F)cn4C(C)C)cc3)c2n1 + Cc1[nH]c2ccc(F)cc2c1-c1nc2c3cccnc3c3ncccc3c2[nH]1
IC50 (second compound 0.0316 µM): 5.7 µM
IC50 (second compound 0.1 µM): 5.93 µM
IC50 (second compound 0.316 µM): 5.9 µM
IC50 (second compound 1 µM): 5.46 µM
IC50 (second compound 3.16 µM): 4.13 µM
IC50 (second compound 10 µM): 3.36 µM
viability, T/C [1]: 97.6%
viability, T/C [2]: 103%
viability, T/C [3]: 91.9%
viability, T/C [4]: 99.4%
viability, T/C [5]: 97.1%
viability, T/C [6]: 5.07%
viability, T/C [7]: 88.5%
viability, T/C [8]: 107%
viability, T/C [9]: 114%
viability, T/C [10]: 110%
viability, T/C [11]: 101%
viability, T/C [12]: 7.94%
viability, T/C [13]: 103%
viability, T/C [14]: 88.3%
viability, T/C [15]: 111%
viability, T/C [16]: 117%
viability, T/C [17]: 96.3%
viability, T/C [18]: 10.5%
viability, T/C [19]: 97.1%
viability, T/C [20]: 97.2%
viability, T/C [21]: 113%
viability, T/C [22]: 115%
viability, T/C [23]: 89.5%
viability, T/C [24]: 6.2%
viability, T/C [25]: 85.5%
viability, T/C [26]: 79.5%
viability, T/C [27]: 93.2%
viability, T/C [28]: 82.6%
viability, T/C [29]: 63.2%
viability, T/C [30]: 6.71%
viability, T/C [31]: 48.1%
viability, T/C [32]: 30.1%
viability, T/C [33]: 76.9%
viability, T/C [34]: 54.2%
viability, T/C [35]: 53.4%
viability, T/C [36]: 5.55%
